The results in this text go back to ChEMBL document CHEMBL1201862, “PubChem BioAssay data set” (2004).

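Dose response: 5 concentrations. Exposure: 48 h. Format: 96-well plates. Endpoint: linear interpolation; highest concentration if not reached. Abbreviation: GI50, concentration required for 50% inhibition of growth.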 Active and inactive are the calls of the source. No stated cut-off is given here; in the data, active = GI50 up to about 1.1 µM and inactive = higher. Bounds are passed on as bounds.

Some test systems named below: UACC-257; SNB-19; A549; HT-29; A498; Malme-3M; NCI/ADR-RES; NCI-H226; NCI-H522; LXFL 529; OVCAR-4; 786-0; M19-MEL; SF-268; SN12C; MDA-MB-435; CAKI-1; DU-145; SK-MEL-28; HCT-15.
What all share (test): NCI tumour cell line growth inhibition, 48 h

Turning to `CC(C)Cc1ccc(C(C)/C=C2\CCC(CN(C)C)C2=O)cc1` (stereo not given), the GI50 in the assay with UACC-257 is 14.8 µM (inactive); in the assay on SNB-19, 12.4 µM (inactive); in the assay with A549, 27.7 µM (inactive); with HT-29, 13.8 µM (inactive); in the assay on A498, 19.5 µM (inactive); with Malme-3M, 17 µM (inactive). In addition, the GI50 is 5.89 µM (inactive) with NCI/ADR-RES; 20.2 µM (inactive) in the assay on NCI-H226; 7.31 µM (inactive) in the assay on NCI-H522; 9.35 µM (inactive) in the assay on LXFL 529; 17 µM (inactive) with OVCAR-4; 2.96 µM (inactive) in the assay with 786-0. For the same compound, the GI50 was 17.6 µM (inactive) in the assay on M19-MEL; 11.6 µM (inactive) in the assay on SF-268; 10 µM (inactive) in the assay on SN12C; 7.16 µM (inactive) with MDA-MB-435; 17.5 µM (inactive) in the assay with CAKI-1; 11.4 µM (inactive) in the assay on DU-145. Besides, the GI50 is 15.8 µM (inactive) with SK-MEL-28 and 9.18 µM in the assay with HCT-15.

Consider `COC1C(OC(=O)/C=C/C=C/C=C/C=C\C(=O)O)CCC2(CO2)C1C1(C)OC1CC=C(C)C` (stereo not given), for which the GI50 was > 100 µM (inactive) in the assay on UACC-257; > 100 µM (inactive) with SNB-19; > 100 µM (inactive) with A549; > 100 µM (inactive) in the assay with HT-29; > 100 µM (inactive) with A498; 131 µM (inactive) with Malme-3M. The GI50 in the assay on NCI/ADR-RES, in the assay on NCI-H226, in the assay on NCI-H522, in the assay with LXFL 529, with OVCAR-4 and in the assay with 786-0 was > 100 µM (inactive) each time. In addition, the GI50 in the assay on M19-MEL, with SF-268, with SN12C, in the assay with MDA-MB-435, with CAKI-1 and in the assay on DU-145 was > 100 µM (inactive) in each case. Besides, the results for the GI50 with SK-MEL-28 and in the assay on HCT-15 were > 100 µM (inactive) and more than 100 µM, respectively.
